Results published in ChEMBL document CHEMBL4376834, “Discovery of 4H-Chromen-4-one Derivatives as a New Class of Selective Rho Kinase (ROCK) Inhibitors, which Showed Potent Activity in ex Vivo Diabetic Retinopathy Models” (J Med Chem, 2019).

Assays:
[1] = molecular target: Tyrosine-protein kinase ABL1 (Homo sapiens, UniProt P00519); experiment: Inhibition of human recombinant ABL1 (27 to end residues) using EAIYAAPFAKKK as substrate incubated for 40 mins in presence of [gamma-33P]ATP by radiometric scintillation counting analysis
[2] = molecular target: Tyrosine-protein kinase ABL1 (Homo sapiens, UniProt P00519, Y253F); experiment: Inhibition of human recombinant ABL1 Y253F mutant (27 to end residues) using EAIYAAPFAKKK as substrate incubated for 40 mins in presence of [gamma-33P]ATP by radiometric scintillation counting analysis
[3] = molecular target: Calcium/calmodulin-dependent protein kinase type 1G (Homo sapiens, UniProt Q96NX5); experiment: Inhibition of recombinant full length human CaMK1gamma using KKLRRTLSFAEPG as substrate incubated for 40 mins in presence of [gamma-33ATP] by radiometric scintillation counting analysis
[4] = molecular target: CDK4/Cyclin D3 (Homo sapiens, UniProt P11802); experiment: Inhibition of recombinant full length human CDK4/CyclinD3 using Rb fragment as substrate incubated for 40 mins in presence of [gamma-33ATP] by radiometric scintillation counting analysis; assay type: protein-complex assay
[5] = molecular target: CDK6/cyclin D3 (Homo sapiens, UniProt Q00534); experiment: Inhibition of recombinant full length human CDK6/cyclinD3 using histone H1 as substrate incubated for 40 mins in presence of [gamma-33ATP] by radiometric scintillation counting analysis; assay type: protein-complex assay
[6] = molecular target: Transient receptor potential cation channel subfamily M member 7 (Homo sapiens, UniProt Q96QT4); experiment: Inhibition of recombinant human CHAK1 (1180 to end residues) using myelin basic protein as substrate incubated for 40 mins in presence of [gamma-33ATP] by radiometric scintillation counting analysis
[7] = molecular target: Tyrosine-protein kinase CSK (Homo sapiens, UniProt P41240); experiment: Inhibition of recombinant full length human CSK using poly(Glu, Tyr) 4:1 as substrate incubated 40 mins in presence of [gamma-33ATP] by radiometric scintillation counting analysis
[8] = molecular target: Hepatocyte growth factor receptor (Homo sapiens, UniProt P08581, A1209G/V1290L); experiment: Inhibition of recombinant human MET A1209G/V1290L double mutant (974 to end residues) using KKKGQEEEYVFIE as substrate incubated for 40 mins in presence of [gamma-33ATP by radiometric scintillation counting analysis
[9] = molecular target: Platelet-derived growth factor receptor alpha (Homo sapiens, UniProt P16234, D842V); experiment: Inhibition of human PDGFRalpha D842V mutant (550 to end residues) using GGMEDIYFEFMGG as substrate measured after 40 mins in presence of [gamma33P]ATP by radiometric scintillation counting analysis
[10] = molecular target: Serine/threonine-protein kinase PAK 6 (Homo sapiens, UniProt Q9NQU5); experiment: Inhibition of recombinant human PAK6 (382 to end residues) using RRRLSFAEPG as substrate measured after 40 mins in presence of [gamma33P]ATP by radiometric scintillation counting analysis
[11] = molecular target: Homeodomain-interacting protein kinase 2 (Homo sapiens, UniProt Q9H2X6); experiment: Inhibition of human recombinant HIPK2 I471N mutant (165 to 564 residues) using myelin basic protein as substrate after 40 mins by [gamma-33ATP] radiometric assay
[12] = molecular target: Homeodomain-interacting protein kinase 3 (Homo sapiens, UniProt Q9H422); experiment: Inhibition of human recombinant HIPK3 (161 to 562 residues) using myelin basic protein as substrate after 40 mins by [gamma-33ATP] radiometric assay
[13] = molecular target: Tyrosine-protein kinase JAK3 (Homo sapiens, UniProt P52333); experiment: Inhibition of human recombinant JAK3 (781 to end residues) using GGEEEEYFELVKK as substrate after 40 mins by [gamma-33ATP] by radiometric scintillation counting analysis
[14] = molecular target: Vascular endothelial growth factor receptor 2 (Homo sapiens, UniProt P35968); experiment: Inhibition of human recombinant KDR (790 to end residues) using myelin basic protein as substrate after 40 mins by [gamma-33ATP] by radiometric scintillation counting analysis
[15] = molecular target: Mitogen-activated protein kinase kinase kinase kinase 3 (Homo sapiens, UniProt Q8IVH8); experiment: Inhibition of recombinant human MAP4K3 (1 to 291 residues) using RLGRDKYKTLRQI as substrate incubated for 40 mins in presence of [gamma-33ATP by radiometric scintillation counting analysis
[16] = molecular target: Proto-oncogene tyrosine-protein kinase receptor Ret (Homo sapiens, UniProt P07949, V804L); experiment: Inhibition of recombinant human Ret V804L mutant (658 to end residues) using KKKVSRSGLYRSP as substrate incubated for 40 mins in presence of [gamma33P]ATP by radiometric scintillation counting analysis
[17] = molecular target: Ribosomal protein S6 kinase alpha-2 (Homo sapiens, UniProt Q15349); experiment: Inhibition of recombinant full length human Rsk3 using KKKNRTLSVA as substrate incubated for 40 mins in presence of [gamma33P]ATP by radiometric scintillation counting analysis
[18] = molecular target: Mitogen-activated protein kinase 12 (Homo sapiens, UniProt P53778); experiment: Inhibition of recombinant human full length SAPK3 using myelin basic protein as substrate incubated for 40 mins in presence of [gamma33P]ATP by radiometric scintillation counting analysis
[19] = molecular target: Serine/threonine-protein kinase SBK1 (Homo sapiens, UniProt Q52WX2); experiment: Inhibition of recombinant full-length human SBK1 using KKLRRTLSVA as substrate incubated for 120 mins in presence of [gamma33P]ATP by radiometric scintillation counting analysis
[20] = molecular target: Serine/threonine-protein kinase SIK1 (Homo sapiens, UniProt P57059); experiment: Inhibition of recombinant human SIK (1 to 281 residues) using AMARAASAAALARas substrate incubated for 40 mins in presence of [gamma33P]ATP by radiometric scintillation counting analysis
[21] = molecular target: Mitogen-activated protein kinase kinase kinase 7 (Homo sapiens, UniProt O43318); experiment: Inhibition of recombinant human TAK1 (1 to 303 residues) using casein as substrate incubated for 40 mins in presence of [gamma33P]ATP by radiometric scintillation counting analysis
[22] = Inhibition of activated recombinant human TEC F514V mutant (174 to end residues) using EFPIYDFLPAKKK as substrate incubated for 40 mins in presence of [gamma33P]ATP by radiometric scintillation counting analysis
[23] = Inhibition of recombinant human TIE2 Q939H/Q940H/Y897S triple mutant (771 to end residues) using EFPIYDFLPAKKK as substrate incubated for 40 mins in presence of [gamma33P]ATP by radiometric scintillation counting analysis
[24] = molecular target: Testis-specific serine/threonine-protein kinase 1 (Homo sapiens, UniProt Q9BXA7); experiment: Inhibition of recombinant full-length human TSSK1 using KKKVSRSGLYRSP as substrate incubated for 40 mins in presence of [gamma33P]ATP by radiometric scintillation counting analysis
[25] = molecular target: Non-receptor tyrosine-protein kinase TYK2 (Homo sapiens, UniProt P29597); experiment: Inhibition of recombinant human TYK2 (875 to end residues) using GGMEDIYFEFMGG as substrate incubated for 40 mins in presence of [gamma33P]ATP by radiometric scintillation counting analysis

Measured: IC50

Chain of Vascular endothelial growth factor receptor 2 (P35968 whole entry, the tested form may be a part): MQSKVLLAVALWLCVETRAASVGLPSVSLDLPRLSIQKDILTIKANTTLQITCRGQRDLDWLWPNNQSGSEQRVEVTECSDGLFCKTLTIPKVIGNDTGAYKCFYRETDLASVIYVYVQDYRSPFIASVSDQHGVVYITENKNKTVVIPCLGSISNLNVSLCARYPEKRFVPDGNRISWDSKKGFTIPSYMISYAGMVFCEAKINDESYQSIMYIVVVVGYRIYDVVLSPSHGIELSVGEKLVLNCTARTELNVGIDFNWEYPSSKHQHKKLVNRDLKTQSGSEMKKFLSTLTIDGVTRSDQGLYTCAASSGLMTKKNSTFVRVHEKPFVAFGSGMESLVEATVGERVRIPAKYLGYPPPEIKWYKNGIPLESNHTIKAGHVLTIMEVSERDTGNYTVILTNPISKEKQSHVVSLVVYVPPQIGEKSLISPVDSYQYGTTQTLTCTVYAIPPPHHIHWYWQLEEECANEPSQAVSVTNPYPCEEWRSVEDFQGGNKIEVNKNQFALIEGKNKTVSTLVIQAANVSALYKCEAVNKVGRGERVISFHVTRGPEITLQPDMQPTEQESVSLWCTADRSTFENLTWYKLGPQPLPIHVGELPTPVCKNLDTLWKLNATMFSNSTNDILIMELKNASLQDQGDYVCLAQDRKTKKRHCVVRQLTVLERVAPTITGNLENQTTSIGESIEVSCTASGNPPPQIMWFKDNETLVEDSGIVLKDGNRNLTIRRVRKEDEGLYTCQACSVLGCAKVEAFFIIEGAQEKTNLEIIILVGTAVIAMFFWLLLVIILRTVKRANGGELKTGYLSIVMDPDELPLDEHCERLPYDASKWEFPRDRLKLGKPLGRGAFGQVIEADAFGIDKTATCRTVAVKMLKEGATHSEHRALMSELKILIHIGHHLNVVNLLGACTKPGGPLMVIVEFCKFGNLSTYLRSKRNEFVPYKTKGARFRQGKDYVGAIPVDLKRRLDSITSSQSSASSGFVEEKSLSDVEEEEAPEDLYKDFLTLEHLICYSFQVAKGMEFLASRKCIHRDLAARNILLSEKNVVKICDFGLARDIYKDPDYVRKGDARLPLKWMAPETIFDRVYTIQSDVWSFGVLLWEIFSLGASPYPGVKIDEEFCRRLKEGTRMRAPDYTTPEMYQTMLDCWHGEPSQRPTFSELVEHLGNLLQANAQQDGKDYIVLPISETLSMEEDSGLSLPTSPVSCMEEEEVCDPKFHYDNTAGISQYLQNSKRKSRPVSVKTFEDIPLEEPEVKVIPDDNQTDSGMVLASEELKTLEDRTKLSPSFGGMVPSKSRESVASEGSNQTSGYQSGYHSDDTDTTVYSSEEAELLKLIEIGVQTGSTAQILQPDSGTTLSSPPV
Chain of Tyrosine-protein kinase JAK3 (P52333 whole entry): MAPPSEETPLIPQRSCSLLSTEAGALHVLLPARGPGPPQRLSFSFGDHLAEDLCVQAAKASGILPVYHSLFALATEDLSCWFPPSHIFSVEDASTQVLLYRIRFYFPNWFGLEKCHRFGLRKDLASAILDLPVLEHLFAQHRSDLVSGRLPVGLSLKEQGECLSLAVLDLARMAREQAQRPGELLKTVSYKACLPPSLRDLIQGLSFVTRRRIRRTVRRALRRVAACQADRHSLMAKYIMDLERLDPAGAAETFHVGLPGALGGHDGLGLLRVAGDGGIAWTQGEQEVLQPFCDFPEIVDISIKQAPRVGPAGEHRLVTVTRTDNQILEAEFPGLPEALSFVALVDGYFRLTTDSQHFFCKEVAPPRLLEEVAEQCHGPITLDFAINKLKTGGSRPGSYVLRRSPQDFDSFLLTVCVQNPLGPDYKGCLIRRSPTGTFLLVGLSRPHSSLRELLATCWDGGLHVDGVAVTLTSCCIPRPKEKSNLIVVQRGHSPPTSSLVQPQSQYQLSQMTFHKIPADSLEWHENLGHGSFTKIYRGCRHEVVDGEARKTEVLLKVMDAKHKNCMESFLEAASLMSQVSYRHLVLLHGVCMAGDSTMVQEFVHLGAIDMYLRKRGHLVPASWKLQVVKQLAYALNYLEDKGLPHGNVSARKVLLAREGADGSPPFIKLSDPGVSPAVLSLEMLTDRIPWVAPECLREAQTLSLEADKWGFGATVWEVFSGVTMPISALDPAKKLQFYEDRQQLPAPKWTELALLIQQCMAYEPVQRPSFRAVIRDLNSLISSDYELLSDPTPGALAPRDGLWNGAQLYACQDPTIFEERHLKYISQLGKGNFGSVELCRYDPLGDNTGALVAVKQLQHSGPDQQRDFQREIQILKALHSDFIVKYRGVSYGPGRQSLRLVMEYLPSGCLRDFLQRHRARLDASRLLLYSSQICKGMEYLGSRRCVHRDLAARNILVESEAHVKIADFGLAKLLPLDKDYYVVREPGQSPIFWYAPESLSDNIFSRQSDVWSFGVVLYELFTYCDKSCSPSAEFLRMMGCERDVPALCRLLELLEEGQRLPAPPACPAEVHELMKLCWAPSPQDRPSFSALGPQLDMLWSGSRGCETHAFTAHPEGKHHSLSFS
Chain of Tyrosine-protein kinase CSK (P41240 whole entry): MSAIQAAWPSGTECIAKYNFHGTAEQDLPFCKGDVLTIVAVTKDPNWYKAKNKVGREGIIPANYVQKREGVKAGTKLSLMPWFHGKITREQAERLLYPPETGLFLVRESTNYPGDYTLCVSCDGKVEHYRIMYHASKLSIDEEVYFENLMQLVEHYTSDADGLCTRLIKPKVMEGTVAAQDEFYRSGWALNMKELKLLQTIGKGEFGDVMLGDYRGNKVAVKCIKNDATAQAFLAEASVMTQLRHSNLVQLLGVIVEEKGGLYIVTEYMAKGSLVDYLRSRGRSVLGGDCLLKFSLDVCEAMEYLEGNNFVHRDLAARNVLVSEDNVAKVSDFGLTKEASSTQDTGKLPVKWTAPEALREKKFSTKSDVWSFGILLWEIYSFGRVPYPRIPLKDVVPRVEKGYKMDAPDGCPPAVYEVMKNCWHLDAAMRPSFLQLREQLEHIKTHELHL
Chain of Testis-specific serine/threonine-protein kinase 1 (Q9BXA7 whole entry): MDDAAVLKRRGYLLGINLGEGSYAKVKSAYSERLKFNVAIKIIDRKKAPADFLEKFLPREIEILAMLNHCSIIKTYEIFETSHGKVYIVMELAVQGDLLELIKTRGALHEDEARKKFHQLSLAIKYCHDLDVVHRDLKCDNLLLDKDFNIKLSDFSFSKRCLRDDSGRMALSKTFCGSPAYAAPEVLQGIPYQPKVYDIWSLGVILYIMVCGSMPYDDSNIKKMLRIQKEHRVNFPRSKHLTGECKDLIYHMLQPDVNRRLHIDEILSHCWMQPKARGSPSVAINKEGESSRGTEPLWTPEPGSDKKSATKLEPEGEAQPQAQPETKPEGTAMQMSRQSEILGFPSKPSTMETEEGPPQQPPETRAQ
Chain of Calcium/calmodulin-dependent protein kinase type 1G (Q96NX5 whole entry, the tested form may be a part): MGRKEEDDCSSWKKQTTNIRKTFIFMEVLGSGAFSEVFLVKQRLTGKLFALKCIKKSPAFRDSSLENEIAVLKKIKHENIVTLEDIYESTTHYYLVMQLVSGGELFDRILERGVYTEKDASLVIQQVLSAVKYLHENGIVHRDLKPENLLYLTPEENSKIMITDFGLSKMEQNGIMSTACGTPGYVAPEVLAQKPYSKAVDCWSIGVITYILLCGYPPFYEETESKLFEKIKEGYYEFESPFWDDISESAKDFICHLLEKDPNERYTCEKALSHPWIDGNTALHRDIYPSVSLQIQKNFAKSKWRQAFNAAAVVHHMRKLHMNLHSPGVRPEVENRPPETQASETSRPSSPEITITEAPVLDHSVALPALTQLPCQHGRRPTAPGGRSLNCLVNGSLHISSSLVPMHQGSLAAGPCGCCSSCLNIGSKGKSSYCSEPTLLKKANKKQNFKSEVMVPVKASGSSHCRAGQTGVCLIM
Chain of CDK4/Cyclin D3 (P11802 whole entry, the tested form may be a part): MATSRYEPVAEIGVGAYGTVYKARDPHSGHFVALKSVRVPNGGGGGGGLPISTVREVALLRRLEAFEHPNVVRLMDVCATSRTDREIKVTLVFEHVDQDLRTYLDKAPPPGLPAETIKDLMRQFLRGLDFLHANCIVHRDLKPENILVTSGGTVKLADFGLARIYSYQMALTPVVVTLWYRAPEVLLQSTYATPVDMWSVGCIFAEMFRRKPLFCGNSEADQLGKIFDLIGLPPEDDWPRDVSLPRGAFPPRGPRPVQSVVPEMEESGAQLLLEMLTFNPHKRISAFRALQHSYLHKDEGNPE
Chain of CDK4/Cyclin D3 (P30281 whole entry, further chain, the tested form may be a part): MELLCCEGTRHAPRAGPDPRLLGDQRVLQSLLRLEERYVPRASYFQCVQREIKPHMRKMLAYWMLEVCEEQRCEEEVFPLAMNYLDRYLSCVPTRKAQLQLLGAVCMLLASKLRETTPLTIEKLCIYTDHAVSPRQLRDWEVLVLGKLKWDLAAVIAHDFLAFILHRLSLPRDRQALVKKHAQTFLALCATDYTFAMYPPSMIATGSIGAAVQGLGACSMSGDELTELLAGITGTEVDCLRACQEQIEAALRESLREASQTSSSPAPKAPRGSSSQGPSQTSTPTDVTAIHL
Chain of Serine/threonine-protein kinase PAK 6 (Q9NQU5 whole entry, the tested form may be a part): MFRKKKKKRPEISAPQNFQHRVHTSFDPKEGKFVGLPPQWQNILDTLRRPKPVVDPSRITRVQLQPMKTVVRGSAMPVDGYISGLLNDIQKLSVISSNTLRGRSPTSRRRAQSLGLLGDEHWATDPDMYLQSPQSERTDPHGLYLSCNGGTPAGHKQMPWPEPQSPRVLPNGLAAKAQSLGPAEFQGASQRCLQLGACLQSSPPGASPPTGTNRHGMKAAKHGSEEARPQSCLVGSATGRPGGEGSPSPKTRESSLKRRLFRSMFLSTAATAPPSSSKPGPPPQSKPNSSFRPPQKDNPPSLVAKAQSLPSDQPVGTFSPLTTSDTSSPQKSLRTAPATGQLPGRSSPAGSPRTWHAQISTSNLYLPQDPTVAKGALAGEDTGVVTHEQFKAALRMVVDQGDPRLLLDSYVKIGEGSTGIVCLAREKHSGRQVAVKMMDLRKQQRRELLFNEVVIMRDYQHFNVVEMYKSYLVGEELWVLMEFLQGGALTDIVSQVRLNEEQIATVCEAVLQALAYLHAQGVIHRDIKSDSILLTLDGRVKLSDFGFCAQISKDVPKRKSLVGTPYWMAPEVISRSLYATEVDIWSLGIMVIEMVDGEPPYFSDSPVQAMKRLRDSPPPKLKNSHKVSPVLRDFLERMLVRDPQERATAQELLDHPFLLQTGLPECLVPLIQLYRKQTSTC

CN(C)c1ccc(C(=O)Nc2cccc(NC(=O)COc3ccc4c(=O)ccoc4c3)c2)cc1
> 10 µM: [1] | [2] | [3] | [4] | [5] | [6] | [7] | [8] | [9] | [10] | [11] | [12] | [13] | [14] | [15] | [16] | [17] | [18] | [19] | [20] | [21] | [22] | [23] | [24] | [25]
